{"source": "patent US20050048113A1", "about": "“Composition and method for treatment or prevention of oral cavity disorders” (priority 2003, published 2005)", "key": {"[1]": {"system": "proton-translocating membrane ATPases of oral streptococci", "settings": "cited from earlier work"}, "[2]": {"system": "male participants suffering from gingivitis", "test": "Loe Silness gingival index (GI) in participants suffering from gingivitis", "assay_type": "in vivo, human", "experimental": "Twelve male participants (24-42 years old) suffering from gingivitis were divided into 4 groups. Participants of the first group (No.=3) were treated by conventional oral hygiene procedures, including mechanical procedures and usage of mouthwash preparations for 3 months. Participants of the second group (No. =3) were treated by swallowing tablet of Famotidine 40 mg, once daily at bed time, for 3 months. Participants of the third group (No.=3) were treated by sublingual tablet of Famotidine 40 mg, once daily at bed time, for 3 months. Participants of the fourth group (No.=3) were treated by sublingual tablet of Omeprazole 20 mg, once daily at bed time, for 3 months. All participants were screened for dental caries and treated accordingly.\nEach participant was examined at recruitment and after then bi-weekly up to 3 months from recruitment (7 examinations for each participant). At each visit gingival index was determined using a standard Loe Silness gingival index (GI) chart, which is accessible at the following website: http://www.medal.org/sheets/ch9/gingival %20index %20Loe %20Silness.xls.\nThe GI scores of examination No.7 (at 3 months from recruitment) compared to GI scores at examination No.1 (at recruitment), were calculated as mean GI reduction for each group."}, "[3]": {"system": "-person suffering from accelerated cariogenicity and progressive gingivitis"}, "[4]": {"settings": "famotidine 40 mg per day, sublingual vs p.o. vs no treatment, 3 weeks each; pH 1, 2, 3 hours after a meal and at wakeup; preliminary results", "experimental": "An ongoing study is now being carried out on healthy young (25-40 years old) volunteers. The oral cavity pH is measured 1, 2, and 3 hours after a meal and at wakeup in the morning. These measurements are done daily for each participant, 3 weeks without treatment, 3 weeks under sublingual famotidine (40 mg per day), and 3 weeks under p.o. famotidine (40 mg per day)."}, "[5]": {"settings": "Famotidine 40 mg per day, tablets swallowed, half year later"}}, "data": [{"smiles": "C(=NC1CCCCC1)=NC1CCCCC1", "note": "[dicyclohexylcarbodiimide]", "values": [{"measurement": "sensitivity of proton-translocating membrane ATPases to the inhibitor", "setting": "[1]", "value": "sensitive"}]}, {"smiles": "COc1ccc2[nH]c([S+]([O-])Cc3ncc(C)c(OC)c3C)nc2c1", "note": "(stereo not shown) [Omeprazole]", "values": [{"measurement": "mean GI reduction", "setting": "[2]; sublingual tablet 20 mg once daily at bed time, 3 months vs recruitment (fourth group)", "value": 27.5, "unit": "%"}]}, {"smiles": "[N-]=[N+]=[N-]", "note": "[azide]", "values": [{"measurement": "sensitivity of proton-translocating membrane ATPases to the inhibitor", "setting": "[1]", "value": "sensitive"}]}, {"smiles": "NC(N)=Nc1nc(CSCCC(N)=NS(N)(=O)=O)cs1", "note": "[Famotidine]", "values": [{"measurement": "epigastric symptoms", "setting": "[3]; [5]", "value": "relieved"}, {"measurement": "symptoms of reflux", "setting": "[3]; [5]", "value": "persisted"}, {"measurement": "reflux symptoms", "setting": "[3]; famotidine tablets taken sublingually instead of swallowed", "value": "relieved"}, {"measurement": "new caries at twice a year dental follow-ups", "setting": "[3]; next 5 years under sublingual famotidine treatment", "value": "new caries were not detected"}, {"measurement": "gingivitis", "setting": "[3]; sublingual famotidine, in the following months", "value": "improved dramatically"}, {"measurement": "rank order of the highest oral cavity pH", "setting": "[4]", "value": "Sublingual Famotidine treatment>p.o. Famotidine treatment>no treatment"}, {"measurement": "mean GI reduction", "setting": "[2]; sublingual tablet 40 mg once daily at bed time, 3 months vs recruitment (third group)", "value": 31, "unit": "%"}, {"measurement": "mean GI reduction", "setting": "[2]; swallowed tablet 40 mg once daily at bed time, 3 months vs recruitment (second group)", "value": 17.1, "unit": "%"}]}, {"smiles": "[O]=[V]([O-])([O-])[O-]", "note": "[vanadate]", "values": [{"measurement": "sensitivity of proton-translocating membrane ATPases to the inhibitor", "setting": "[1]", "value": "insensitive"}]}, {"smiles": "C[C@@H]1O[C@@H](O[C@H]2C[C@@H](O)[C@]3(CO)[C@H]4[C@H](O)C[C@]5(C)[C@@H](C6=CC(=O)OC6)CC[C@]5(O)[C@@H]4CC[C@]3(O)C2)[C@H](O)[C@H](O)[C@H]1O", "note": "[ouabain]", "values": [{"measurement": "sensitivity of proton-translocating membrane ATPases to the inhibitor", "setting": "[1]", "value": "insensitive"}]}]}
